{"source": "PubChem BioAssay (NCI)", "test_in_all_cases": "growth of human tumour cells (NCI), 48 h", "key": {"HOP-92 NSCLC": {"test_system": "HOP-92 NSCLC"}, "HT29 colon": {"test_system": "HT29 colon"}, "MALME-3M melanoma": {"test_system": "MALME-3M melanoma"}, "IGROV1 ovarian": {"test_system": "IGROV1 ovarian"}, "EKVX NSCLC": {"test_system": "EKVX NSCLC"}, "HCC-2998 colon": {"test_system": "HCC-2998 colon"}, "UACC-62 melanoma": {"test_system": "UACC-62 melanoma"}, "NCI-H226 lung": {"test_system": "NCI-H226 lung"}, "RXF-631 renal": {"test_system": "RXF-631 renal"}, "HCT-116 colon": {"test_system": "HCT-116 colon"}, "CAKI-1 renal": {"test_system": "CAKI-1 renal"}, "HL-60(TB) leukemia": {"test_system": "HL-60(TB) leukemia"}, "LOX IMVI melanoma": {"test_system": "LOX IMVI melanoma"}, "SK-MEL-5 melanoma": {"test_system": "SK-MEL-5 melanoma"}, "HCT-15 colon": {"test_system": "HCT-15 colon"}, "SF-295 CNS": {"test_system": "SF-295 CNS"}, "U251 CNS": {"test_system": "U251 CNS"}, "SF-268 CNS": {"test_system": "SF-268 CNS"}, "UACC-257 melanoma": {"test_system": "UACC-257 melanoma"}, "RPMI-8226 leukemia": {"test_system": "RPMI-8226 leukemia"}, "COLO 205 colon": {"test_system": "COLO 205 colon"}, "OVCAR-5 ovarian": {"test_system": "OVCAR-5 ovarian"}, "A549 NSCLC": {"test_system": "A549 NSCLC"}, "ACHN renal": {"test_system": "ACHN renal"}, "KM20L2 colon": {"test_system": "KM20L2 colon"}, "SW-620 colon": {"test_system": "SW-620 colon"}, "TK-10 renal": {"test_system": "TK-10 renal"}, "SR leukemia": {"test_system": "SR leukemia"}, "CCRF-CEM leukemia": {"test_system": "CCRF-CEM leukemia"}, "NCI-H460 lung": {"test_system": "NCI-H460 lung"}, "OVCAR-3 ovarian": {"test_system": "OVCAR-3 ovarian"}, "KM12 colon": {"test_system": "KM12 colon"}, "M14 melanoma": {"test_system": "M14 melanoma"}, "MOLT-4 leukemia": {"test_system": "MOLT-4 leukemia"}, "UO-31 renal": {"test_system": "UO-31 renal"}, "NCI-H522 lung": {"test_system": "NCI-H522 lung"}, "SN12C renal": {"test_system": "SN12C renal"}, "SNB-19 CNS": {"test_system": "SNB-19 CNS"}, "786-0 renal": {"test_system": "786-0 renal"}, "NCI-H23 lung": {"test_system": "NCI-H23 lung"}, "SF-539 CNS": {"test_system": "SF-539 CNS"}, "RXF 393 renal": {"test_system": "RXF 393 renal"}, "OVCAR-8 ovarian": {"test_system": "OVCAR-8 ovarian"}, "SK-MEL-28 melanoma": {"test_system": "SK-MEL-28 melanoma"}, "K-562 leukemia": {"test_system": "K-562 leukemia"}, "SK-OV-3 ovarian": {"test_system": "SK-OV-3 ovarian"}, "SNB-75 CNS": {"test_system": "SNB-75 CNS"}, "OVCAR-4 ovarian": {"test_system": "OVCAR-4 ovarian"}}, "note": "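The compound was tested at five concentrations on cells cultured in 96-well plates, with a 48-hour exposure period. GI50 = concentration required for 50% inhibition of growth. TGI denotes the concentration required for complete inhibition of growth.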"}
{"smiles": "Nc1ccccc1Nc1ccccc1C(=O)[O-].Nc1ccccc1Nc1ccccc1C(=O)[O-].[Ni+2]", "values": [{"measurement": "GI50", "setting": "HOP-92 NSCLC", "result": "> 100", "unit": "µM"}, {"measurement": "TGI", "setting": "HOP-92 NSCLC", "result": "> 100", "unit": "µM"}, {"measurement": "TGI", "setting": "HT29 colon", "result": "> 100", "unit": "µM"}, {"measurement": "TGI", "setting": "MALME-3M melanoma", "result": "> 100", "unit": "µM"}, {"measurement": "TGI", "setting": "IGROV1 ovarian", "result": "> 100", "unit": "µM"}, {"measurement": "TGI", "setting": "EKVX NSCLC", "result": "> 100", "unit": "µM"}, {"measurement": "TGI", "setting": "HCC-2998 colon", "result": "> 100", "unit": "µM"}, {"measurement": "TGI", "setting": "UACC-62 melanoma", "result": "> 100", "unit": "µM"}, {"measurement": "GI50", "setting": "NCI-H226 lung", "result": "> 100", "unit": "µM"}, {"measurement": "TGI", "setting": "NCI-H226 lung", "result": "> 100", "unit": "µM"}, {"measurement": "GI50", "setting": "RXF-631 renal", "result": "> 100", "unit": "µM"}, {"measurement": "TGI", "setting": "RXF-631 renal", "result": "> 100", "unit": "µM"}, {"measurement": "TGI", "setting": "HCT-116 colon", "result": "> 100", "unit": "µM"}, {"measurement": "TGI", "setting": "CAKI-1 renal", "result": "> 100", "unit": "µM"}, {"measurement": "GI50", "setting": "HL-60(TB) leukemia", "result": "> 100", "unit": "µM"}, {"measurement": "TGI", "setting": "HL-60(TB) leukemia", "result": "> 100", "unit": "µM"}, {"measurement": "GI50", "setting": "LOX IMVI melanoma", "result": "> 100", "unit": "µM"}, {"measurement": "TGI", "setting": "LOX IMVI melanoma", "result": "> 100", "unit": "µM"}, {"measurement": "TGI", "setting": "SK-MEL-5 melanoma", "result": "> 100", "unit": "µM"}, {"measurement": "TGI", "setting": "HCT-15 colon", "result": "> 100", "unit": "µM"}, {"measurement": "TGI", "setting": "SF-295 CNS", "result": "> 100", "unit": "µM"}, {"measurement": "TGI", "setting": "U251 CNS", "result": "> 100", "unit": "µM"}, {"measurement": "TGI", "setting": "SF-268 CNS", "result": "> 100", "unit": "µM"}, {"measurement": "TGI", "setting": "UACC-257 melanoma", "result": "> 100", "unit": "µM"}, {"measurement": "TGI", "setting": "RPMI-8226 leukemia", "result": "> 100", "unit": "µM"}, {"measurement": "TGI", "setting": "COLO 205 colon", "result": "> 100", "unit": "µM"}, {"measurement": "TGI", "setting": "OVCAR-5 ovarian", "result": "> 100", "unit": "µM"}, {"measurement": "TGI", "setting": "A549 NSCLC", "result": "> 100", "unit": "µM"}, {"measurement": "TGI", "setting": "ACHN renal", "result": "> 100", "unit": "µM"}, {"measurement": "TGI", "setting": "KM20L2 colon", "result": "> 100", "unit": "µM"}, {"measurement": "TGI", "setting": "SW-620 colon", "result": "> 100", "unit": "µM"}, {"measurement": "TGI", "setting": "TK-10 renal", "result": "> 100", "unit": "µM"}, {"measurement": "GI50", "setting": "SR leukemia", "result": "> 100", "unit": "µM"}, {"measurement": "TGI", "setting": "SR leukemia", "result": "> 100", "unit": "µM"}, {"measurement": "TGI", "setting": "CCRF-CEM leukemia", "result": "> 100", "unit": "µM"}, {"measurement": "TGI", "setting": "NCI-H460 lung", "result": "> 100", "unit": "µM"}, {"measurement": "TGI", "setting": "OVCAR-3 ovarian", "result": "> 100", "unit": "µM"}, {"measurement": "TGI", "setting": "KM12 colon", "result": "> 100", "unit": "µM"}, {"measurement": "TGI", "setting": "M14 melanoma", "result": "> 100", "unit": "µM"}, {"measurement": "TGI", "setting": "MOLT-4 leukemia", "result": "> 100", "unit": "µM"}, {"measurement": "TGI", "setting": "UO-31 renal", "result": "> 100", "unit": "µM"}, {"measurement": "TGI", "setting": "NCI-H522 lung", "result": 86, "unit": "µM"}, {"measurement": "TGI", "setting": "SN12C renal", "result": "> 100", "unit": "µM"}, {"measurement": "TGI", "setting": "SNB-19 CNS", "result": "> 100", "unit": "µM"}, {"measurement": "TGI", "setting": "786-0 renal", "result": "> 100", "unit": "µM"}, {"measurement": "TGI", "setting": "NCI-H23 lung", "result": "> 100", "unit": "µM"}, {"measurement": "TGI", "setting": "SF-539 CNS", "result": "> 100", "unit": "µM"}, {"measurement": "GI50", "setting": "RXF 393 renal", "result": 60.1, "unit": "µM"}, {"measurement": "TGI", "setting": "RXF 393 renal", "result": "> 100", "unit": "µM"}, {"measurement": "TGI", "setting": "OVCAR-8 ovarian", "result": "> 100", "unit": "µM"}, {"measurement": "TGI", "setting": "SK-MEL-28 melanoma", "result": "> 100", "unit": "µM"}, {"measurement": "TGI", "setting": "K-562 leukemia", "result": "> 100", "unit": "µM"}, {"measurement": "TGI", "setting": "SK-OV-3 ovarian", "result": "> 100", "unit": "µM"}, {"measurement": "TGI", "setting": "SNB-75 CNS", "result": "> 100", "unit": "µM"}, {"measurement": "GI50", "setting": "OVCAR-4 ovarian", "result": 67.8, "unit": "µM"}, {"measurement": "TGI", "setting": "OVCAR-4 ovarian", "result": "> 100", "unit": "µM"}]}
